From patent US10392381B2, “Prevention and treatment of non-alcoholic fatty liver disease” (Ohio University, priority 2014, dated 2019)

How the values were obtained:
[1] = tested on: Patients having NAFLD; assay: Therapeutic use to treat NAFLD in patients (Example 11, contemplated); format: in vivo, human; settings: once daily oral dose of 3 mg/kg
Procedure: Contemplated Experimental Protocol. Patients having NAFLD are prescribed COB-204, COB-214, COB-152, or COB-187 to reduce the fat content in their liver. After determination of a baseline level of fat content in each of the patients' livers, each patient takes a once daily oral dose of 3 mg/kg of body weight of the COB-204, COB-214, COB-152, or COB-187, during which fat content in each patient's liver tissue is determined via liver function testing, liver ultrasound, and liver biopsy.

[2] = tested on: Patients at risk for developing NAFLD; assay: Therapeutic use to prevent development of NAFLD in patients at risk (Example 10, contemplated); format: in vivo, human; settings: once daily oral dose of 1 mg/kg, chronically
Procedure: Contemplated Experimental Protocol. Patients at risk for developing NAFLD are prescribed COB-204, COB-214, COB-152, or COB-187 to prevent excess accumulation of fat. Each patient takes a once daily oral dose of 1 mg/kg of body weight of the COB-204, COB-214, COB-152, or COB-187, chronically, during which fat content in the liver is determined via liver function testing, liver ultrasound, and liver biopsy.

[3] = tested on: C57BL/6J mice on an HFD with NAFLD (liver tissue); assay: Treatment of NAFLD in C57BL/6J mice fed a HFD (Example 8, contemplated); format: in vivo; settings: C57BL/6J mice on HFD after NAFLD is observed; once daily ip 1, 3 or 10 mg/kg/day for up to 16 weeks (24 weeks if no effect)
Procedure: Contemplated Experimental Protocol. C57BL/6J mice are placed on an HFD containing 60% fat (by % Kcal) (Diet #D12492, Research Diets, Inc.) for a period of weeks (as determined by the results of Example 6) until development of NAFLD is observed and clearly distinguishable from LFD-fed mice of the same age (between 4-8 weeks). At the time or after NAFLD is observed, once daily ip injections of COB-204, COB-214, COB-152, COB-187, DMSO, or sham are administered. Five mice are then euthanized weekly thereafter to characterize the effects of the COB-204, COB-214, COB-152, COB-187, DMSO, and/or sham on treatment of NAFLD for the period of up to 16 weeks post-initiation of the COB-204, COB-214, COB-152, COB-187, DMSO, and sham administration. The period of time for which treatment is administered will be extended to 24 weeks if no effect of the COB-204, COB-214, COB-152, or COB-187 administration on treatment of NAFLD is observed. The following Table further illustrates the experimental design:
If no effect of the COB-204, COB-214, COB-152, or COB-187 administration on treatment of NAFLD is observed by 16 weeks post-initiation of the COB-204, COB-214, COB-152, COB-187, DMSO, and sham administration, a subsequent study is performed wherein the period of time is extended to 24 weeks of the COB-204, COB-214, COB-152, and COB-187 administration, with 5 mice euthanized weekly from weeks 17-24 as previously described. The following Table further illustrates the experimental design:
NAFLD is evaluated in the liver of the HFD mice macroscopically, microscopically, and molecularly. More specifically, following euthanasia, the liver of each mouse is removed, weighed, and photographs taken thereof for macroscopic and/or gross observation of NAFLD. Then, the liver of each mouse is split in half, wherein one half is used for microscopic analysis of NAFLD and the remaining half is used for molecular analysis of NAFLD (i.e., quantification of triglycerides). Quantification of triglycerides is performed in accordance with the general protocol described in Example 6.

[4] = tested on: C57BL/6J mice on a HFD (liver tissue); assay: Prevention of NAFLD in C57BL/6J mice fed a HFD (Example 7): macroscopic observation, hematoxylin and eosin histology, liver triglyceride quantification; format: in vivo; settings: C57BL/6J mice on HFD; for mean triglyceride concentration (mg/g liver) in liver tissue compared with HFD or HFD + DMSO mice / Percentage of Triglyceride Values (mg/g liver) Below the Mean of the HFD + Sham Group / macroscopic observation of fatty liver disease compared with sham or DMSO injection: 1 mg/kg intraperitoneal once daily for 6 weeks; for mean triglyceride concentration (mg/g liver) in liver tissue compared with HFD or HFD + DMSO mice: comparison of means in FIG. 3; for Percentage of Triglyceride Values (mg/g liver) Below the Mean of the HFD + Sham Group: middle, right and left liver lobes (FIG. 3), 1 mg/kg; for macroscopic observation of fatty liver disease compared with sham or DMSO injection: removed liver tissue; for histological examination of hepatic fat accumulation compared with sham or DMSO injection: 1 mg/kg intraperitoneal once daily, middle lobe of liver, hematoxylin and eosin (FIG. 4)
Procedure: Quantification of triglycerides of the middle, right, and left lobes was performed to ensure that accumulation (or lack thereof) of triglycerides was similar in each lobe of the liver and to ensure that a representative analysis of triglyceride accumulation in the liver as a whole was assessed. The caudate lobe was excluded since the caudate lobe is very small compared to the middle, right, and left lobes. Triglycerides were quantified in accordance with the following general protocol, based upon the Salmon and Flatt Method of Liver Saponification. 50-100 mg of liver tissue was placed into an Eppendorf tube and weighed. Equal volume per weight of 3 M KOH (in 65% EtOH) was added to the tube and vortexed. The tube was placed at 70° C. for 1 hr to activate digestion. The tubes were vortexed every 15 minutes. The tube was set at room temperature overnight to allow for complete digestion, and was vortexed periodically. The sample was diluted to a final concentration of 100 mg of liver tissue per 600 μl fluid; the sample was diluted by adding 2 M Tris-HCl (un-pHed) to a final concentration of 50 mM. Where a second dilution was required, the sample was diluted using 50 mM Tris-HCl (pH 7.5). Triglycerides-GPO (0.5 mL, liquid; Pointe Scientific Cat. No. T7532-500; Fisher Scientific, Pittsburgh, Pa.) were aliquoted into Eppendorf tubes and warmed in a 37° C. water bath for 5-10 minutes. Glycerol standards (0, 1, 2.5, 5, 7.5 and 10 mmol/L) were made by diluting 10 mmol/L stock of glycerol, such as, e.g., with 50 mM Tris-HCl. 5 μL of the sample and glycerol standards (0, 1, 2.5, 5, 7.5 and 10 mmol/L) were added to 0.5 mL of the triglycerides-GPO, mixed, and incubated at room temperature for 5 minutes. The mixture was then vortexed and added (200 μL) to each well of a 96-well flat-bottom ELISA plate (in triplicate). Absorbance (i.e., optical density) was read at 500 nm. The concentrations of the samples were determined via use of a plot of glycerol standards concentration (mmol/L) with respect to optical density (i.e., O.D.) at 500 nm. The concentration of glycerol (mg glycerol/g tissue) was then calculated and triglyceride concentration was determined, in accordance with calculations known to those of ordinary skill in the art.
Experimental Protocol. 7 week old male C57BL/6J mice (i.e., a mouse model of obesity-induced insulin resistance and Type 2 Diabetes Mellitus) were placed on a HFD (i.e., having a fat content of 60%, a protein content of 20%, and a carbohydrate content of […], N=50). The C57BL/6J mice on the HFD were divided into five groups, wherein one such group was immediately given an intraperitoneal sham injection (i.e., Group 1, serving as a stress control N=10), another group was immediately given an intraperiteonal injection of dimethyl sulfoxide (hereinafter, “DMSO”, i.e., Group 2, serving as a vehicle control, N=10), another group was immediately given an intraperitoneal injection of 1 mg/kg COB-204 (i.e., Group 3, N=10), another group was immediately given an intraperitoneal injection of 1 mg/kg COB-214 (i.e., Group 4, N=10), and another group was immediately given an intraperitoneal injection of 1 mg/kg COB-187 (i.e., Group 5, N=10). Such injections were initiated with the HFD and were given to the C57BL/6J mice on the HFD once daily for a period of 6 weeks. Food intake and total body weight of the C57BL/6J mice were measured weekly.
At 0 weeks, some of the C57BL/6J mice from each of Groups 1-5 were euthanized (N=5). Liver tissue of the C57BL/6J mice euthanized at 0 weeks was harvested and divided into lobes, including the middle lobe, the right lobe, and the left lobe, for morphological (i.e., hematoxylin and eosin staining) and molecular analysis (i.e., quanitification of triglycerides). The caudate lobe was excluded from such division as the caudate lobe is very small compared to the middle, right, and left lobes. […]

SMILES | fat content in the patient's liver [1] | excess accumulation of fat in the liver of patients [2] | fat content in the liver tissue of the mice [3] | mean triglyceride concentration (mg/g liver) in liver tissue compared with HFD or HFD + DMSO mice [4] | Percentage of Triglyceride Values (mg/g liver) Below the Mean of the HFD + Sham Group [4] | macroscopic observation of fatty liver disease compared with sham or DMSO injection [4] | histological examination of hepatic fat accumulation compared with sham or DMSO injection [4]
OC1(c2ccccc2)CSC(=S)N1Cc1cccnc1 (stereo not drawn) [COB-152] | reduced relative to the baseline level | no excess accumulation of fat | reduced relative to a baseline level | – | – | – | –
OC1(c2ccccc2)CSC(=S)N1Cc1ccncc1 (stereo not drawn) [COB-187] | reduced relative to the baseline level | no excess accumulation of fat | reduced relative to a baseline level | lower mean triglyceride concentration | 79% | much less fatty liver disease | much less hepatic fat accumulation
COc1ccc(-c2csc(=S)n2Cc2cccnc2)c(OC)c1 [COB-204] | reduced relative to the baseline level | no excess accumulation of fat | reduced relative to a baseline level | no effect | 60% | much less fatty liver disease | much less hepatic fat accumulation
CCCn1c(-c2cccnc2)csc1=S [COB-214] | reduced relative to the baseline level | no excess accumulation of fat | reduced relative to a baseline level | lower mean triglyceride concentration | 87% | much less fatty liver disease | much less hepatic fat accumulation
